# Laboratory results as given in patent US10898609B2, “Tissue decellularization methods” (priority 2015, dated 2021).
# Columns and labels:
# Assay type in all cases: cell-based, Sprague Dawley rats
# peripheral nerve [1] = test: Total DNA content of decellularized peripheral nerve, Picogreen DNA assay; details: 1 day
# Experimental: Peripheral nerves were harvested from Sprague Dawley rats and decellularized according to an apoptosis-assisted protocol using 5 μM camptothecin in non-supplemented media at 37° C. for 1 day. Tissue in media without camptothecin, an apoptotic agent, was used as a control. Apoptotic agent treatment was succeeded by washes in saline buffered solutions to optimize cell removal. Furthermore, the tissue was treated with 75 u/mL DNAse for 24 hours to ensure DNA removal. The degree of apoptosis, cellular removal, and matrix preservation was assessed using immunochemistry on nerve tissue sections and fluorescence imaging (FIG. 2). Antibodies used to identify apoptosis, cell removal, and tissue preservation include those against active caspase 3 (Abcam); neurofilament (RT-97, DSHB) and S100 (Dako); and laminin (Sigma), respectively. […] FIGS. 2B and 2C show nerves treated with 5 μM for 1 day, washed with a hypertonic, and either washed with a hypertonic solution or treated for 24 hours with DNAse, respectively. […] FIGS. 2E and 2F show treatment with higher camptothecin (10 μM), again for 1 day, and washed similarly to tissue in FIGS. 2B and 2C. These images depict 1) apoptosis induction is necessary prior to washing to effectively remove cellular components and 2) combing apoptosis induction with washes in non-isotonic solutions achieves cellular removal of peripheral nerve tissue. Total DNA content was quantified using a Picogreen DNA assay (Life Technologies) according to manufacturer's instructions.
# active caspase 3 = test: Immunochemistry for active caspase 3 on nerve tissue sections; details: 10 μM camptothecin, 2 days, 37° C., ex vivo nerve; vs media control
# Experimental: (§1) Peripheral nerves were harvested from Sprague Dawley rats and decellularized according to an apoptosis-assisted protocol using 10 μM camptothecin in non-supplemented media at 37° C. for 2 days. Tissue in media without camptothecin was used as a control. Apoptotic agent treatment was succeeded by washes in saline buffered solutions to optimize cell removal. The degree of apoptosis, cellular removal, and matrix preservation was assessed using immunochemistry on nerve tissue sections and fluorescence imaging. Antibodies used to identify apoptosis, cell removal, and tissue preservation include those against active caspase 3 (Abcam); neurofilament (RT-97, DSHB) and S100 (Dako); and laminin (Sigma), respectively. […] Total DNA content was quantified using a Picogreen DNA assay (Life Technologies) according to manufacturer's instructions.
# peripheral nerve [2] = test: TUNEL assay of apoptosis-mediated DNA fragmentation in nerve tissue; details: 10 μM camptothecin, 2 days, 37° C., ex vivo nerve; vs media control
# Experimental: as §1
smiles,measurement,setting,value
CC[C@@]1(O)C(=O)OCc2c1cc1n(c2=O)Cc2cc3ccccc3nc2-1 [camptothecin],reduction in DNA content compared to fresh nerve,"peripheral nerve [1]; 5 μM camptothecin, 37° C., hypertonic and hypotonic washes",71.9%
same,reduction in DNA content compared to fresh nerve,"peripheral nerve [1]; 5 μM camptothecin, hypotonic wash replaced with DNAse treatment (75 u/mL, 24 hours)",95.1%
same,reduction in DNA content compared to fresh nerve,"peripheral nerve [1]; 10 μM camptothecin, hypertonic and hypotonic washes",57.3%
same,reduction in DNA content compared to fresh nerve,"peripheral nerve [1]; 10 μM camptothecin, hypotonic wash replaced with DNAse treatment (75 u/mL, 24 hours)",95.8%
same,active caspase 3 (early mediator of apoptosis),active caspase 3,caspase 3 activation
same,DNA fragmentation (TUNEL staining),peripheral nerve [2],DNA fragmentation
